We go through 23 molecules from US12024506B2, “Compounds” (Oxford University Innovation Limited, priority 2018, dated 2024).

Some results are limits rather than exact numbers.

The target in experiment [1] is T1, GST-human KRas166 (G12V) GPPNHP (Homo sapiens, UniProt P01116, G12V).
T1 construct: made in house; host or cells: E. coli C41(DE3)
Kind of experiment: KRas small-molecule screening by SPR (Biacore T200). It counts as binding. Conditions: compound 100 uM, 5% DMSO buffer; immobilised GST-KRas166 (G12V) GPPNHP. The method in brief: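 GST-KRas166 G12V loaded with GPPNHP, captured on anti-GST CM5 chip at 10,000–15,000 RU, GST reference channel. Compounds run at 100 uM in buffer with 100 mM NaCl, 5 mM MgCl2, 5% DMSO, with DMSO solvent correction; Rmax for 1:1 binding taken as 63 RU.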

Experiment [2] concerns H358 cells (ATCC CRL-5807). Kind of experiment: Cell viability assay 1 (CellTiter-Glo), H358 cells. The experiment is classed as cell-based. Conditions: Homo sapiens, NCI-H358, 48 h, first value of the cell, read-out: Cell Viability H358 (concentration that decreases cell viability by 50%). The procedure: (§1) Cells (A549 ATCC CCL-185) are cultured in Dulbecco's Modified Eagle's Medium plus 10% foetal calf serum and 2 mM L-glutamine at 37° C., 5% CO2. Cells are plated onto white clear bottom 96-well plates (5000 cells/well in 200 μl media) and left to adhere overnight at 37° C., 5% CO2. Next day, test compound (1 μl at 200× concentration in 100% DMSO) is added to give final test compound concentration 1× in 0.5% DMSO. After 48 h of incubation at 37° C., 5% CO2, 20 μl CellTiter-Glo reagent (Promega G7572) is added into each well. Plates are incubated at room temperature with shaking for 30 min and then luminescence is read using a PheraStar plate reader. The concentration of compounds that decrease cell viability by 50% is calculated from dose response curves generated using Dotmatics data analysis software.
In the H358 cell assay, cells (ATCC CRL-5807) are cultured in RPMI-1640 medium plus 10% foetal calf serum and 2 mM L-glutamine at 37° C., 5% CO2.

In experiment [3] the test system is DLD1 cells (ATCC CCL-221). Briefly: Cell viability assay 1 (CellTiter-Glo), DLD1 cells. It counts as cell-based. The note with it: Homo sapiens, DLD-1 cells, 48 h, second value of the cell, read-out: Cell Viability DLD-1 (concentration that decreases cell viability by 50%). The procedure:
as §1
In the DLD1 cell assay, cells (ATCC CCL-221) are cultured in RPMI-1640 medium plus 10% foetal calf serum and 2 mM L-glutamine at 37° C., 5% CO2.

As for `COc1nc(-c2cccc3c2OCCO3)ccc1Nc1ccc(CNC[C@@H]2COCCN2)cc1` [Example 128, [6-(2,3-Dihydro-benzo[1,4]dioxin-5-yl)-2-methoxy-pyridin-3-yl]-(4-{[((R)-1-morpholin-3-ylmethyl)-amino]-methyl}-phenyl)-amine], in experiment [1], the “SPR Response Units” value was determined as 99 Response Units. Also, the IC50 in experiment [2] is 6.7 µM; in experiment [3], 9.5 µM.

`COc1nc(-c2cccc3c2O[C@@H](CNC(=O)C2CCOCC2)CO3)ccc1Nc1cccc(CN(C)C)c1` [Example 69]: in experiment [1], the “SPR Response Units” value came to 128 Response Units. The IC50 in experiment [2] was determined as 21 µM; in experiment [3] it was 21.5 µM.

As for `COc1cccc(-c2cccc3c2OC(CNC(=O)c2ccc(OCCN(C)C)cc2)CO3)n1` (centres unmarked) [Example 39, 4-(2-Dimethylamino-ethoxy)-N-[8-(6-methoxy-pyridin-2-yl)-2,3-dihydro-benzo[1,4]dioxin-2-ylmethyl]-benzamide], in experiment [1], the “SPR Response Units” value was found to be 127 Response Units. For the same molecule, the IC50 in experiment [2] was determined as 79 µM; in experiment [3] it was 5 µM.

Regarding `COc1nc(-c2cccc3c2OCCO3)ccc1Nc1cccc(C(=O)NCC2CCN(C)CC2)c1` [Example 163, 3-[6-(2,3-Dihydro-benzo[1,4]dioxin-5-yl)-2-methoxy-pyridin-3-ylamino]-N-(1-methyl-piperidin-4-ylmethyl)-benzamide], the “SPR Response Units” value in experiment [1] is on record as 192 Response Units. In addition, the IC50 was 8.9 µM in experiment [2] and 0.74 µM in experiment [3].

With `COc1nc(-c2cccc3c2OCCO3)ccc1Nc1ccc(CC(=O)N2CCN(C)CC2)cc1` [Example 198, 2-{4-[6-(2,3-Dihydro-benzo[1,4]dioxin-5-yl)-2-methoxy-pyridin-3-ylamino]-phenyl}-1-(4-methyl-piperazin-1-yl)-ethanone], the “SPR Response Units” value in experiment [1] is on record as 330 Response Units. Moreover, the IC50 in experiment [2] was 1.57 µM; in experiment [3], 21.8 µM.

For the molecule `COc1nc(-c2cccc3c2OCCO3)ccc1Nc1cccc(CNCc2cn[nH]c2)c1` [Example 126, [6-(2,3-Dihydro-benzo[1,4]dioxin-5-yl)-2-methoxy-pyridin-3-yl]-(3-{[(1H-pyrazol-4-ylmethyl)-amino]-methyl}-phenyl)-amine], the “SPR Response Units” value in experiment [1] is on record as 210 Response Units. For the same molecule, the IC50 in experiment [2] was determined as 5.4 µM; in experiment [3] it was 5.3 µM.

For `COc1nc(-c2cccc3c2OCCO3)ccc1Nc1cccc([C@@H]2CCCN2)c1` [Example 75, [6-(2,3-Dihydro-benzo[1,4]dioxin-5-yl)-2-methoxy-pyridin-3-yl]-((S)-3-pyrrolidin-2-yl-phenyl)-amine], the “SPR Response Units” value in experiment [1] stood at 112 Response Units. The figures for the IC50 in experiment [2] and in experiment [3] were 2.6 µM and 4 µM, respectively.

As to `COc1nc(-c2cccc3c2OCCO3)ccc1Nc1ccc(CNCc2cc[nH]c(=O)c2)cc1` [Example 170, 4-({4-[6-(2,3-Dihydro-benzo[1,4]dioxin-5-yl)-2-methoxy-pyridin-3-ylamino]-benzylamino}-methyl)-1H-pyridin-2-one], the “SPR Response Units” value in experiment [1] is 284 Response Units. Besides, the IC50 in experiment [2] stood at 13.6 µM; in experiment [3], 2 µM.

Turning to `COc1nc(-c2cccc3c2OCCO3)ccc1Nc1cccc(CNCC2CCN(C)CC2)c1` [Example 189, [6-(2,3-Dihydro-benzo[1,4]dioxin-5-yl)-2-methoxy-pyridin-3-yl]-(3-{[(1-methyl-piperidin-4-ylmethyl)-amino]-methyl}-phenyl)-amine], the “SPR Response Units” value in experiment [1] is recorded as 552 Response Units. In addition, the IC50 in experiment [2] amounted to 44.9 µM; in experiment [3], 1.4 µM.

For `COc1nc(-c2cccc3c2OCCO3)ccc1Nc1cccc(CN(C)C)c1` [Example 55, [6-(2,3-dihydro-benzo[1,4]dioxin-5-yl)-2-methoxy-pyridin-3-yl]-(3-dimethylaminomethyl-phenyl)-amine], the “SPR Response Units” value in experiment [1] was 130 Response Units. In addition, the IC50 in experiment [2] is 8 µM; in experiment [3], 9.2 µM.

For `COc1nc(-c2cccc3c2OCCO3)ccc1Nc1cccc(CNCC2CCC(=O)N2)c1` (centres unmarked) [Example 192, 5-({3-[6-(2,3-Dihydro-benzo[1,4]dioxin-5-yl)-2-methoxy-pyridin-3-ylamino]-benzylamino}-methyl)-pyrrolidin-2-one], the “SPR Response Units” value in experiment [1] stood at 321 Response Units. Further, the IC50 in experiment [2] is greater than 150 µM; in experiment [3], 11.4 µM.

Regarding `COc1nc(-c2cccc3c2OCCO3)ccc1Nc1ccccc1C(=O)NCC1CCNCC1` [Example 150, 2-[6-(2,3-Dihydro-benzo[1,4]dioxin-5-yl)-2-methoxy-pyridin-3-ylamino]-N-piperidin-4-ylmethyl-benzamide], the IC50 in experiment [2] worked out at 12 µM; in experiment [3], 2.5 µM.

Regarding `COc1nc(-c2cccc3c2OCCO3)ccc1Nc1cccc(C(=O)NCc2cn[nH]c2)c1` [Example 183, 3-[6-(2,3-Dihydro-benzo[1,4]dioxin-5-yl)-2-methoxy-pyridin-3-ylamino]-N-(1H-pyrazol-4-ylmethyl)-benzamide], the results for the IC50 in experiment [2] and in experiment [3] were 15.5 µM and 8.4 µM, respectively.

Consider `CN1CCN(Cc2ccc(C(=O)NCC3COc4cccc(-c5cccc(=O)[nH]5)c4O3)o2)CC1` (centres unmarked) [Example 52, 5-(4-Methyl-piperazin-1-ylmethyl)-furan-2-carboxylic acid [8-(6-oxo-1,6-dihydro-pyridin-2-yl)-2,3-dihydro-benzo[1,4]dioxin-2-ylmethyl]-amide], for which the “SPR Response Units” value in experiment [1] was 18 Response Units.

For the molecule `COc1cc(N)cc(-c2cccc3c2O[C@H](CNC(=O)c2ccc(CN4CCN(C)CC4)o2)CO3)n1` [Example 114, 5-(4-Methyl-piperazin-1-ylmethyl)-furan-2-carboxylic acid [(R)-8-(4-amino-6-methoxy-pyridin-2-yl)-2,3-dihydro-benzo[1,4]dioxin-2-ylmethyl]-amide], the “SPR Response Units” value in experiment [1] is given as 23 Response Units.

Take `COc1cc(NC(=O)C2CCN(C)CC2)cc(-c2cccc3c2OCCO3)n1` [Example 4, 1-Methyl-piperidine-4-carboxylic acid [2-(2,3-dihydro-benzo[1,4]dioxin-5-yl)-6-methoxy-pyridin-4-yl]-amide]: in experiment [1], the “SPR Response Units” value worked out at 37 Response Units.

With `COc1ccc(N2CC(=O)N(CC3COc4cccc(-c5cccc(OC)n5)c4O3)C2=O)cn1` (centres unmarked) [Example 36, 1-(6-Methoxy-pyridin-3-yl)-3-[8-(6-methoxy-pyridin-2-yl)-2,3-dihydro-benzo[1,4]dioxin-2-ylmethyl]-imidazolidine-2,4-dione], the “SPR Response Units” value in experiment [1] was determined as 58 Response Units.

`COc1cccc(-c2cccc3c2OC(CN2C(=O)NC4(CCN(C)CC4)C2=O)CO3)n1` (centres unmarked) [Example 34, 3-[8-(6-Methoxy-pyridin-2-yl)-2,3-dihydro-benzo[1,4]dioxin-2-ylmethyl]-8-methyl-1,3,8-triaza-spiro[4.5]decane-2,4-dione]: the “SPR Response Units” value in experiment [1] is reported as 37 Response Units.

Consider `COc1nc(-c2cccc3c2OCCO3)ccc1Nc1cccc(C(=O)NCc2cccc(F)n2)c1` [Example 168, 3-[6-(2,3-Dihydro-benzo[1,4]dioxin-5-yl)-2-methoxy-pyridin-3-ylamino]-N-(6-fluoro-pyridin-2-ylmethyl)-benzamide], for which, in experiment [1], the “SPR Response Units” value was 23 Response Units.

Take `COc1nc(-c2cccc3c2OCCO3)ccc1NC1CCN(C)CC1` [Example 98, [6-(2,3-Dihydro-benzo[1,4]dioxin-5-yl)-2-methoxy-pyridin-3-yl]-(1-methyl-piperidin-4-yl)-amine]: in experiment [1], the “SPR Response Units” value is on record as 21 Response Units.

As for `COc1cc(NC(=O)N2CCN(C)CC2)cc(-c2cccc3c2OCCO3)n1` [Example 23, 4-Methyl-piperazine-1-carboxylic acid [2-(2,3-dihydro-benzo[1,4]dioxin-5-yl)-6-methoxy-pyridin-4-yl]-amide], the “SPR Response Units” value in experiment [1] came to 58 Response Units.

Take `COc1nc(-c2cccc3c2OCCO3)ccc1NC1CCN(C(C)=O)CC1` [Example 99, 1-{4-[6-(2,3-Dihydro-benzo[1,4]dioxin-5-yl)-2-methoxy-pyridin-3-ylamino]-piperidin-1-yl}-ethanone]: in experiment [1], the “SPR Response Units” value stood at 33 Response Units.

Turning to `COc1cccc(-c2cccc3c2O[C@H](CNC(=O)c2ccc(CN4CCN(C)CC4)o2)CO3)n1` [Example 51, 5-(4-Methyl-piperazin-1-ylmethyl)-furan-2-carboxylic acid [(R)-8-(6-methoxy-pyridin-2-yl)-2,3-dihydro-benzo[1,4]dioxin-2-ylmethyl]-amide], in experiment [1], the “SPR Response Units” value turned out to be 32 Response Units.
